Results on one compound are retold here after patent US11441126B2, “Platform for the induction and maintenance of ground state pluripotency” (Fate Therapeutics, Inc., priority 2015, dated 2022).

The test system of the assay is hiPSC clone FTi111. The assay is described as follows: Post-thaw recovery of hiPSC clone in various culture environments. It counts as cell-based, human. Particulars: conventional culture with feeder cells.

As to `O=C(NCc1ccccc1)c1csc(Nc2ccncn2)n1` [Thiazovivin], the “recovery of hiPSC colonies after thaw” value is “only recovered in the presence of Thiazovivin”.
